Test results: ChEMBL document CHEMBL1152688, “Bioorganic synthesis of a recombinant HIV-1 fusion inhibitor, SC35EK, with an N-terminal pyroglutamate capping group” (Bioorg Med Chem, 2009)
Non-standard residues stand in square brackets, D forms with d. Residues, ends and D or L forms follow the SMILES beside them. *: point of attachment. hSer(lactone) = O=C1OCC[C@@H]1N*; pGlu = O=C1CC[C@@H](C(=O)O)N1

Experiments:
Serum = assay: Stability in mouse serum assessed as compound degradation by LC-MS analysis; assay type: ADME, cell-free
[1] = test system: Human immunodeficiency virus 1; assay: Antiviral activity against HIV1 NL4-3 infected in human HeLa cells expressing CD4/CCR5-LTR-beta-gal genes assessed as blockade of viral infection by X-gal staining based MAGI method; assay type: functional, organism-based; conditions: Human immunodeficiency virus 1, NL4-3, HeLa

Row | Stability (Serum) | EC50 [1] | Compound
1 | Stable | 0.57 nM | CC[C@H](C)[C@H](NC(=O)[C@H](CC(C)C)NC(=O)[C@H](CCC(=O)O)NC(=O)[C@H](CCC(=O)O)NC(=O)[C@@H](NC(=O)[C@H](CCCCN)NC(=O)[C@H](CCCCN)NC(=O)[C@@H](NC(=O)[C@H](Cc1ccc(O)cc1)NC(=O)[C@H](CCC(=O)O)NC(=O)[C@H](CCC(=O)O)NC(=O)[C@@H](NC(=O)[C@H](CCCCN)NC(=O)[C@H](CCCCN)NC(=O)[C@H](CC(=O)O)NC(=O)[C@H](Cc1c[nH]c2ccccc12)NC(=O)[C@H](CCC(=O)O)NC(=O)[C@H](CCC(=O)O)NC(=O)[C@H](Cc1c[nH]c2ccccc12)NC(=O)[C@@H]1CCC(=O)N1)[C@@H](C)CC)[C@@H](C)O)[C@@H](C)CC)C(=O)N[C@@H](CCCCN)C(=O)N[C@@H](CCCCN)C(=O)N[C@@H](CO)C(=O)N[C@@H](CCC(=O)O)C(=O)N[C@@H](CCC(=O)O)C(=O)N[C@@H](CCC(N)=O)C(=O)N[C@@H](CCC(N)=O)C(=O)N[C@@H](CCCCN)C(=O)N[C@@H](CCCCN)C(=O)N[C@@H](CC(N)=O)C(=O)N[C@@H](CCC(=O)O)C(=O)N[C@@H](CCC(=O)O)C(=O)N[C@@H](CCC(=O)O)C(=O)N[C@@H](CC(C)C)C(=O)N[C@@H](CCCCN)C(=O)N[C@@H](CCCCN)C(=O)N[C@H]1CCOC1=O ([pGlu]WEEWDKKIEEYTKKIEELIKKSEEQQKKNEEELKK-{hSer(lactone)})
2 | Unstable | 2.43 nM | H-WEEWDKKIEEYTKKIEELIKKSEEQQKKNEEELKK-OH
3 | Stable | 0.5 nM | Ac-WEEWDKKIEEYTKKIEELIKKSEEQQKKNEEELKK-NH2
